How the values were obtained:
Assay in all cases: Transient transactivation assay (XREM-Luc, HepG2)
Assay type in all cases: cell-based
Conditions in all cases: 100 μM LCA
Skate VDR = molecular target: T1, Skate VDR (Leucoraja erinacea, UniProt A0A088GDQ7)
T1 sequence (A0A088GDQ7 1-434): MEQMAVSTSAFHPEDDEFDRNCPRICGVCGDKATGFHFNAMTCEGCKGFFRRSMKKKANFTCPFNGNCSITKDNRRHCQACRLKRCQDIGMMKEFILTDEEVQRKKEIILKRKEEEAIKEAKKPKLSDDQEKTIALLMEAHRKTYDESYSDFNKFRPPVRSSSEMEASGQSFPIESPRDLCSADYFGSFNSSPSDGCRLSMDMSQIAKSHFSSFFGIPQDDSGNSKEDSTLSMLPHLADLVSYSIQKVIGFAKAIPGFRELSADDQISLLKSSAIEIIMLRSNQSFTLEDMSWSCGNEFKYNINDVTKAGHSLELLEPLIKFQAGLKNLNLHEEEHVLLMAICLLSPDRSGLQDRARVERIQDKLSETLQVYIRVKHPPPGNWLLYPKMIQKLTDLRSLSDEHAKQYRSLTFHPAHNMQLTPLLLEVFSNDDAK
T1 sequence (P19793 1-462 partner): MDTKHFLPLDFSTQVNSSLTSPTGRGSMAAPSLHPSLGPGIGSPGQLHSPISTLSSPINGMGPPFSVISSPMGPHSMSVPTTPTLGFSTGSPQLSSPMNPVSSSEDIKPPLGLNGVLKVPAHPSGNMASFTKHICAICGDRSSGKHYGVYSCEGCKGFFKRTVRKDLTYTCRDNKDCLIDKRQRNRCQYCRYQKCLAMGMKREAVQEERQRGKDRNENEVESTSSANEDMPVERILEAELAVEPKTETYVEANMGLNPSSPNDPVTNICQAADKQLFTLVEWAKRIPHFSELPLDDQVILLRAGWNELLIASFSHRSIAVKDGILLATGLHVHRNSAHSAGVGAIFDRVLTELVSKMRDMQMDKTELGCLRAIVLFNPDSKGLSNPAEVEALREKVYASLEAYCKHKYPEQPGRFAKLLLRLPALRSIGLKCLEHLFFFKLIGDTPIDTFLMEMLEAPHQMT
Protocol: (§1) HepG2 cells (American Type Culture Collection #HB-8065) were cultured in T75 flasks with vented caps (Corning Life Sciences, Corning, NY) using Minimum Essential Medium (MEM) with phenol red supplemented with 10% fetal bovine serum, 1 mM sodium pyruvate, and 1X MEM non-essential amino acids. Cells were maintained following standard protocols in a 5% CO2 incubator set at 37°C, and split when 80–90% confluent.
(§2) For the transient transactivation assays, HepG2 cells were seeded in 96-well tissue culture plates at a density of 2.5x10^4 cells per well in complete phenol red-free MEM, and allowed to recover overnight. Transfections were performed the following day using Lipofectamine 2000 (Life Technologies, Grand Island, NY) as described previously. For functional comparisons, 89.7 ng/well of full-length pSG5-VDR was co-transfected with 19.2 ng/well human XREM-Luc reporter and 4.5 ng/well of pRL-CMV as an internal luciferase control. Coregulator studies included the addition of 18.3 ng/well of human coregulators (pCDNA-RXRWT, pCDNA-RXRAF2, pSG5-SRC1, pSG5-GRIP1 or pSG5-ACTR) where indicated. […] Controls include 120 nM 1,25D3 as a positive control, and ethanol as a vehicle control. Twenty-four hours post-exposure cells were tested for luciferase activity using the Dual-Glo Luciferase Assay System (Promega Corporation, Madison, WI) according to the manufacturer’s protocols. Luciferase data were first normalized to the pRL-CMV internal luciferase control. […] To calculate the impact of coregulators on VDR transactivation, VDR response in the presence of coregulators was normalized to VDR alone. All experiments were repeated 3 times and conducted as groups of 4 replicate wells. VDR response in the absence of coregulators was analyzed using a 1-way ANOVA followed by Dunnett’s multiple comparisons test. To examine the effects of different coregulators on VDR activation, data were analyzed using a 2-way ANOVA followed by Bonferroni’s multiple comparisons test in GraphPad Prism (GraphPad Inc, San Diego, CA).

Lamprey VDR = molecular target: T2, Lamprey VDR (Petromyzon marinus, UniProt Q7ZZY9)
T2 sequence (Q7ZZY9 1-406): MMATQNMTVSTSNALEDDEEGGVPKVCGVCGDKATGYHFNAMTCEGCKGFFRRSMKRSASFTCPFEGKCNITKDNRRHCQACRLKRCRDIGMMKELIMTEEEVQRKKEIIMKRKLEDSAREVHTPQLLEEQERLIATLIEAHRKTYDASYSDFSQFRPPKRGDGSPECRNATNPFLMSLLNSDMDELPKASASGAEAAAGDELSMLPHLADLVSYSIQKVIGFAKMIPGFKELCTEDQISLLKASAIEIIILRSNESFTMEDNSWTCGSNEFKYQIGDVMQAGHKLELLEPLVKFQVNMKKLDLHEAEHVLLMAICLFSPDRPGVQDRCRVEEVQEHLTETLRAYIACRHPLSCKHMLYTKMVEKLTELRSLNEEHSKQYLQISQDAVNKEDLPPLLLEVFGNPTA
T2 sequence (P19793 1-462 partner): T1 sequence (P19793 1-462 partner)
Protocol: as §1, §2

Human VDR = molecular target: T3, Human VDR (Homo sapiens, UniProt P11473)
T3 sequence (P11473 1-427): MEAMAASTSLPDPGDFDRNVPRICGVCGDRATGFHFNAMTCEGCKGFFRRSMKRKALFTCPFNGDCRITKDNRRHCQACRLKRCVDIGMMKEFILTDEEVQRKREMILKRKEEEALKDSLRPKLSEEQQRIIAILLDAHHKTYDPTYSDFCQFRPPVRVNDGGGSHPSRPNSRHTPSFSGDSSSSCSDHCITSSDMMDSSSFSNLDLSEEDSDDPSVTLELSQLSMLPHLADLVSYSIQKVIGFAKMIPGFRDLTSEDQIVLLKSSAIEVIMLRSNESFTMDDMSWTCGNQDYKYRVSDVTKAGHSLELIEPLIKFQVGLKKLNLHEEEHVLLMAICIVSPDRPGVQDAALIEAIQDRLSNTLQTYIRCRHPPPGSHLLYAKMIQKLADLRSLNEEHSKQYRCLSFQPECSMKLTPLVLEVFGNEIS
Protocol: as §1, §2

[1] = co-transfected human RXRWT, vs VDR alone

## C[C@H](CCC(=O)O)[C@H]1CC[C@H]2[C@@H]3CC[C@@H]4C[C@H](O)CC[C@]4(C)[C@H]3CC[C@]12C [LCA, 5β-cholanic acid-3α-ol]
Skate VDR; [1]
  Effect of exogenous human RXRWT on VDR transactivation: significantly enhanced transactivation
Skate VDR; not significantly different from RXRWT individually
  Effect of RXRWT+SRC1 or RXRWT+GRIP1 on VDR transactivation: Enhanced VDR transactivation was also observed
Lamprey VDR; any SRC/p160 co-activator, presence or absence of RXRWT
  Effect of SRC/p160 co-activators on VDR transactivation: No change in transactivation
Lamprey VDR; [1]
  Effect of exogenous human RXRWT on VDR transactivation: no effect
Human VDR; [1]
  Effect of exogenous human RXRWT on VDR transactivation: significantly enhanced transactivation
Human VDR; compared to either coregulator individually
  Effect of RXRWT+SRC1 or RXRWT+GRIP1 on VDR transactivation: significantly enhanced VDR transactivation
